US10358453B2, “Antiviral compounds” (priority 2015, dated 2019)
Read-outs that look alike come from different tables or passages of the source.

Legend:
[1] = system: RSV subgenomic replicon 395 HeLa and APC126; assay: RSV subgenomic replicon assay (Renilla luciferase); format: cell-based; details: human respiratory syncytial virus; RSV replicon cells (395 HeLa 7 days or APC126 3 days); Table G = less than 1 μM, Table H = equal to or higher than 1 μM and less than 50 μM
Description: The RSV subgenomic replicon 395 HeLa and APC126 were licensed from Apath (Brooklyn, N.Y.) and were originally developed by Dr. Mark Meeples of Center for Vaccines & Immunity, the Research Institute at Nationwide Children's Hospital in Columbus, Ohio. To generate subgenomic RSV replicon, three glycoprotein genes, those for SH, G, and F, from a full-length recombinant GFP-expressing (rg) RSV antigenomic cDNA were deleted. In their place, a blasticidin S deaminase (bsd) gene was inserted. Through multiple steps, the RSV replicon was established in HeLa cells (395 Hela) or BHK cells (APC126). Both 395 HeLa and APC126 cells were cultured in Dulbecco's Modified Eagle Medium (DMEM) containing 4500 mg/L D-glucose, L-glutamine, and 110 mg/L sodium pyruvate (Invitrogen, Cat. #11995-040). The medium was further supplemented with 10% (v/v) fetal bovine serum (FBS) (Mediatech, Cat. #35-010-CV), 1% (v/v) penicillin/streptomycin (Mediatech, Cat. #30-002-CI), and 10 μg/mL of Blasticidin (BSD) (Invivogen, Cat. code ant-bl-1). Cells were maintained at 37° C. in a humidified 5% CO2 atmosphere.
Determination of 50% inhibitory concentration (EC50), 90% inhibitory concentration (EC90) and 50% cytotoxic concentration (CC50) in RSV replicon cells were performed by the following procedure. On the first day, 5000 RSV replicon cells per well were plated in a 96-well plate. On the following day, compounds to be tested were solubilized in 100% DMSO to 100X the desired final testing concentration. Each compound was serially diluted (1:3) up to 9 distinct concentrations. Compounds in 100% DMSO were reduced to 10% (v/v) DMSO by diluting 1:10 in cell culture media. A 10 μL sample of the compounds diluted to 10% (v/v) DMSO with cell culture media was used to treat the RSV replicon cells in 96-well format. The final DMSO concentration was 1% (v/v). Cells were incubated with compounds for 7 days (for 395Hela) or 3 days (for APC126) at 37° C. in a 5% CO2 atmosphere. In each assay, positive control that was previously characterized in the RSV replicon assay was included.
The Renilla Luciferase Assay System (Promega, Cat. #E2820) was used to measure anti-RSV replicon activity. Assay plates were set up as stated above. Luminescence was recorded using a Perkin Elmer multilabel counter Victor3V. EC50, the concentration of the drug required for reducing RSV replicon RNA by 50% in relation to the untreated cell control value, was calculated from the plot of percentage reductions of the […] against the drug concentrations using the Microsoft Excel forecast function.

[2] = Cytotoxicity determination (CCK-8, without addition of virus); format: cell-based; details: human, HEp-2 cells (uninfected), no virus, Table C = greater than 100 μM, Table D = equal to or less than 100 μM and greater than 10 μM
Method: CPE reduction assays are performed as described by Sidwell and Huffman et al., Appl. Microbiol. (1971) 22(5):797-801 with slight modifications. HEp-2 cells (ATCC#, CCL-23) are seeded at a density of 1,500 cells/30 μL/well into the 384-well cell plate(s) (Corning#3701) one day prior to the assay. Compounds are added into 384-well cell plates by Labcyte POD 810 Plate Assembler system. Each of the test compounds is provided to duplicate wells of a 384-well cell plate at final concentrations starting from 100 μM or 1 μM using 1/3 stepwise dilutions for 9 points. Quick-thaw Respiratory Syncytial Virus (RSV) long strain (ATCC#VR-26) stock in a 37° C. water bath. Place on ice until ready to use. Viruses are diluted to the concentration of 100 TCID50/30 μL with medium and 30 μl diluted RSV are added into related wells of 384-well cell plates. For each plate, sixteen wells are set aside as uninfected, untreated cell controls (CC), and nine wells per test plate receive virus only as a control for virus replication (VC). The final DMSO concentration of all wells is 1%. Place the plates at 37° C., 5% CO2 for 5 days.
In order to determine the compound cytotoxicity, in parallel, each of the compounds is applied to duplicate wells in a 384-well cell plate at serial final concentrations starting from 100 μM using ½ stepwise dilutions for 7 points without addition of virus. Incubate the cells at 37° C., 5% CO2 for 5 days. Add 6 μL CCK-8 into each well and incubate in a CO2 incubator at 37° C. for 3-4 h. Read the plates to obtain the optical densities which are used to calculate 50% cytotoxicity concentration (CC50).

recombinant RSV complex = recombinant RSV complex (Human respiratory syncytial virus A, UniProt P28887); assay: RSV polymerase inhibition assay; format: biochemical; details: 2 h at 30° C., Table E = <1 μM, Table F = <50 μM
Sequence of recombinant RSV complex (P28887 whole entry): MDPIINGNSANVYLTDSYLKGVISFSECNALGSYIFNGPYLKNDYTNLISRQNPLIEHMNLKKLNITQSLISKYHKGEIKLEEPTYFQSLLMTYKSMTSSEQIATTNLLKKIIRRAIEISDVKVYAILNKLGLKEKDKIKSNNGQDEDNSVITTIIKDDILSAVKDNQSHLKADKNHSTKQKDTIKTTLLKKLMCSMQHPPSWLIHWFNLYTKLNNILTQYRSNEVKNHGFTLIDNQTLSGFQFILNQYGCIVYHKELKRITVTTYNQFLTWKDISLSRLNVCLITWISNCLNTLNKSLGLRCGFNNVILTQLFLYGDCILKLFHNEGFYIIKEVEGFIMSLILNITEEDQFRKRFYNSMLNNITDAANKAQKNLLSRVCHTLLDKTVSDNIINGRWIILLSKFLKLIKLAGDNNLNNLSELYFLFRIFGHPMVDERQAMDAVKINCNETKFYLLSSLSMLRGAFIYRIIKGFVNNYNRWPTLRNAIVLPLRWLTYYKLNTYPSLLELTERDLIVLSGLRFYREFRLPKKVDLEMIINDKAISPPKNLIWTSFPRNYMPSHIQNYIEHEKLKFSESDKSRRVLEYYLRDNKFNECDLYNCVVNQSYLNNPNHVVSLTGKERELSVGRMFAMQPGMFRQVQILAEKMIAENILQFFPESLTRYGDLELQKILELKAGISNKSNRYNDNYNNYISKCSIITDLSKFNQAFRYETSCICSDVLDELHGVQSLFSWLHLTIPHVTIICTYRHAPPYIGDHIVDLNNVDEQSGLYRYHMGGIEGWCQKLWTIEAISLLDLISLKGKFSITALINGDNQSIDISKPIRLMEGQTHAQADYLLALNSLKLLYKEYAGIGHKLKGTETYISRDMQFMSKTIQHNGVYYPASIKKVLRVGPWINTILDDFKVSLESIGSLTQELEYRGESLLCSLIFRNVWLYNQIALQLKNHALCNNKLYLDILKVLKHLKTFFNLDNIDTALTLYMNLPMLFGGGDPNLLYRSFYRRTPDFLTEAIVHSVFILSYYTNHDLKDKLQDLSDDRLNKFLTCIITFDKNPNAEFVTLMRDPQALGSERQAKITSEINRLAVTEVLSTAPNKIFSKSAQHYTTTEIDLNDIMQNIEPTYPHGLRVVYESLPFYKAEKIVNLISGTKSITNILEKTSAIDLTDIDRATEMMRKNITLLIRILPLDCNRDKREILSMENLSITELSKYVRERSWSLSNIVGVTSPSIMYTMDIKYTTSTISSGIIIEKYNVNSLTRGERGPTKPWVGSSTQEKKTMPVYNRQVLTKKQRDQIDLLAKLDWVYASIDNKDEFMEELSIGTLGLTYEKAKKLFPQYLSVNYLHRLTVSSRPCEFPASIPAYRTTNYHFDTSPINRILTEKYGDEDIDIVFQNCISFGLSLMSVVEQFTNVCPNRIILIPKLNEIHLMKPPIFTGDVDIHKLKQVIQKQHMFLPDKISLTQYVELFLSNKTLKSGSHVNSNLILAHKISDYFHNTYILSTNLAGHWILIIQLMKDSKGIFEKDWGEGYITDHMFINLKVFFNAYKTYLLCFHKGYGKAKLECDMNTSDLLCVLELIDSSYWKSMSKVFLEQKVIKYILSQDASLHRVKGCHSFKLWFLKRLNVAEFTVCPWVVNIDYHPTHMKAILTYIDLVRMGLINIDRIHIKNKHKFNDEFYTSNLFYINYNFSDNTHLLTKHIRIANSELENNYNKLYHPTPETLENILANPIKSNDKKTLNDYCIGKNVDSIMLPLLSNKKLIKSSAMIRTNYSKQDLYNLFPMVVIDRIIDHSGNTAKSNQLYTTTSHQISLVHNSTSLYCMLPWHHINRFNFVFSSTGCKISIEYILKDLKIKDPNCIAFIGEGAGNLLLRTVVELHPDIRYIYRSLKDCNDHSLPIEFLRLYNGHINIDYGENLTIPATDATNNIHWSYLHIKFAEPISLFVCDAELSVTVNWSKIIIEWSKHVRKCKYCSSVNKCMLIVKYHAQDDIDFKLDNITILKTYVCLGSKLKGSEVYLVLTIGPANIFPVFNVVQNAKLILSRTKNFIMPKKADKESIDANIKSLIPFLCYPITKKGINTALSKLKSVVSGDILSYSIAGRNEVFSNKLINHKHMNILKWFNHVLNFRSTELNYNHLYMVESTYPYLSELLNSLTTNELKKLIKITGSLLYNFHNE
Sequence of recombinant RSV complex (P03421 whole entry, further chain): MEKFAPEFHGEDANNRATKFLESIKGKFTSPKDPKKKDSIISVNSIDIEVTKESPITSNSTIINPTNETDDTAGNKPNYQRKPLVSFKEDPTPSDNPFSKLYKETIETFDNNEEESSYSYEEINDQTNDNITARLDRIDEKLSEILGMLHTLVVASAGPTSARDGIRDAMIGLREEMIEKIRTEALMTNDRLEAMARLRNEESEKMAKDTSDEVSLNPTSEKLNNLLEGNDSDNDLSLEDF
Method: Standard RSV polymerase assays were conducted in the presence of 10 nM recombinant RSV complex in a reaction buffer containing Tris-HCl pH7.5, 6 mM MgCl2, and other additives and substrates including RNA oligonucleotides and radionucleotides. Standard reactions were incubated in 96-well plate format for 2 h at 30° C., in the presence of increasing concentration of inhibitor. The reaction was stopped with 90 μL of 0.1M EDTA, and the reaction product was transferred to a “reading” 96-well plate. After washing of the plate, radiolabeled RNA products were detected according to standard procedures with a Trilux Topcount scintillation counter. The compound concentration at which the enzyme-catalyzed rate was reduced by 50% (IC50) was calculated by fitting the data to a non-linear regression (sigmoidal).

[3] = 10 nM recombinant RSV complex, read-out: IC50

| Structure (SMILES) | EC50 [1] | CC50 at 5 days [2] | IC50 (recombinant RSV complex; [3]) | IC50 (recombinant RSV complex; IC50, 10 nM recombinant RSV complex) |
| --- | --- | --- | --- | --- |
| C[C@@]1(N)CNc2c1cc([C@](O)(CNC(=O)c1ccc(OC3CC3)c(OC3CC3)c1)C(F)(F)F)nc2-c1ccc(F)cc1 [Compound 62] | < 1 µM | 10 to 100 µM | < 50 µM |  |
| COc1cc(C(=O)NC[C@@](O)(c2cc3c(c(-c4ccc(F)cc4)n2)NC[C@@]3(C)N)C(F)(F)F)cc2cc[nH]c12 [Compound 83] | < 1 µM | 10 to 100 µM | < 1 µM |  |
| COc1nc(C(=O)NC[C@@](O)(c2cc3c(c(-c4ccc(F)cc4)n2)OC[C@@]3(C)N)C(F)(F)F)cc2c1NC(=O)C2 [Compound 93] | 1 to 50 µM | 10 to 100 µM | < 50 µM |  |
| COc1cc(OCCO)cc(C(=O)NC[C@@](O)(c2cc3c(c(-c4ccc(F)cc4)n2)OC[C@@]3(C)N)C(F)(F)F)c1 [Compound 68] | < 1 µM | 10 to 100 µM | < 1 µM |  |
| C[C@@]1(N)COc2c1cc([C@](O)(CNC(=O)c1cc(OCCO)c3ncccc3c1)C(F)(F)F)nc2-c1ccc(F)cc1 [Compound 80] | < 1 µM | 10 to 100 µM | < 1 µM |  |
| COc1cc(C(=O)NC[C@@](O)(c2cc3c(c(-c4ccc(F)cc4)n2)OC[C@@]3(C)N)C(F)(F)F)ccc1OCC(C)=O [Compound 121] | < 1 µM | 10 to 100 µM | < 1 µM |  |
| CC(C)(N)c1cc(-c2ccc(F)cc2)nc([C@@](O)(CNC(=O)c2ccc(OCCO)c(OC3CC3)c2)C(F)(F)F)c1 [Compound 57] | < 1 µM | 10 to 100 µM | < 1 µM |  |
| C[C@@]1(N)CNc2c1cc([C@](O)(CNC(=O)c1ccc3c(c1)CC(=O)N3)C(F)(F)F)nc2-c1ccc(F)cc1 [Compound 76] | < 1 µM | 10 to 100 µM | < 1 µM |  |
| COc1cc(C(=O)NCC(O)(c2cc3c(c(-c4ccc(F)cc4)n2)OCC3(C)N)C(F)(F)F)ccc1NCCO (stereo not drawn) [Compound 30] | < 1 µM | 10 to 100 µM | < 1 µM |  |
| C[C@@]1(N)COc2c1cc([C@@](O)(CNC(=O)c1ccc(OC3CC3)c(OCCO)c1)C(F)(F)F)nc2-c1ccc(F)cc1 [Compound 60] | < 1 µM | 10 to 100 µM | < 1 µM |  |
| COc1cc(C(=O)NCC(O)(c2cc3c(c(-c4ccc(F)cc4)n2)OCCC3(N)C2CC2)C(F)(F)F)ccc1OC[C@@H](C)O (stereo partly drawn) [Compound 92] | < 1 µM | 10 to 100 µM | < 1 µM |  |
| COc1cc(C(=O)NC[C@](O)(c2cc3c(c(-c4ccc(F)cc4)n2)OCC[C@]3(C)N)C(F)(F)F)ccc1OC[C@@H](C)O (single isomer, unassigned) [Compound 87] | < 1 µM | > 100 µM | < 1 µM |  |
| COc1cc(C(=O)NC[C@@](O)(c2cc3c(c(-c4ccc(F)cc4)n2)NC[C@@]3(C)N)C(F)(F)F)cc2cccnc12 [Compound 74] | < 1 µM | 10 to 100 µM | < 1 µM |  |
| COc1cc(C(=O)NC[C@@](O)(c2cc3c(c(-c4ccc(F)cc4)n2)OC[C@@]3(C)NC(C)=O)C(F)(F)F)ccc1OC[C@@H](C)O [Compound 85] | < 1 µM | 10 to 100 µM | < 1 µM |  |
| COc1cc(C(=O)NCC(O)(c2cc3c(c(-c4ccc(F)cc4)n2)OCC3(N)CO)C(F)(F)F)cc2cc[nH]c12 (stereo not drawn) [Compound 102] | 1 to 50 µM | 10 to 100 µM | < 1 µM |  |
| CC(C)(N)c1cc(-c2ccc(F)cc2)nc(C(O)(CNC(=O)c2ccc(OCCO)c(OC3CC3)c2)C(F)(F)F)c1 (stereo not drawn) [Compound 34] | < 1 µM | 10 to 100 µM | < 1 µM |  |
| C[C@@H](O)COc1cc(C(=O)NCC(O)(c2cc(C(C)(C)N)cc(-c3ccc(F)cc3)n2)C(F)(F)F)ccc1OC1CC1 (stereo partly drawn) [Compound 38] | < 1 µM | 10 to 100 µM |  | < 1 µM |
| COc1cc(C(=O)NCC(O)(c2cc3c(c(-c4ccc(F)cc4)n2)OCC3(C)N)C(F)(F)F)cc2c1NC(=O)NC2 (stereo not drawn) [Compound 43] | 1 to 50 µM | 10 to 100 µM | < 1 µM |  |
| COc1ccc(C(=O)NCC(O)(c2cc3c(c(-c4ccc(F)cc4)n2)OCC3(C)N)C(F)(F)F)cc1OC1CC1 (stereo not drawn) [Compound 23] | < 1 µM | 10 to 100 µM | < 1 µM |  |
| COc1cc(C(=O)NCC(O)(c2cc3c(c(-c4ccc(F)cc4)n2)OCC3(C)N)C(F)(F)F)ccc1OC(C)CO (stereo not drawn) [Compound 21] | < 1 µM | 10 to 100 µM | < 1 µM |  |
| COc1cc(C(=O)NC[C@@](O)(c2cc3c(c(-c4ccc(F)cc4)n2)NC[C@@]3(C)N)C(F)(F)F)ccc1OCCO (single isomer, unassigned) [Compound 51] | < 1 µM | > 100 µM | < 1 µM |  |
| COc1cc(C(=O)NCC(O)(c2cc3c(c(-c4ccncc4)n2)OCC3(C)N)C(F)(F)F)ccc1OCCO (stereo not drawn) [Compound 26] | 1 to 50 µM | > 100 µM | < 50 µM |  |
| COc1cc(C(=O)NCC(O)(c2nc(-c3ccc(F)cc3)cc3c2OC(C)(N)C3)C(F)(F)F)ccc1OC[C@@H](C)O (stereo partly drawn) [Compound 120] | < 1 µM | 10 to 100 µM | < 1 µM |  |
| C[C@@]1(N)COc2c1cc(C(O)(CNC(=O)c1ccc3[nH]ccc3c1)C(F)(F)F)nc2-c1ccc(F)cc1 (stereo partly drawn) [Compound 16] | < 1 µM | 10 to 100 µM | < 1 µM |  |
| CC(C)(N)c1cc(-c2ccc(F)cc2)nc(C(O)(CNC(=O)c2ccc(OC3CC3)c(OCCO)c2)C(F)(F)F)c1 (stereo not drawn) [Compound 36] | < 1 µM | 10 to 100 µM | < 1 µM |  |
| COc1cc(C(=O)NCC(O)(c2cc(C3(C)COCCN3)cc(-c3ccc(F)cc3)n2)C(F)(F)F)ccc1OCCO (stereo not drawn) [Compound 119] | < 1 µM | > 100 µM | < 1 µM |  |
| COc1cc(C(=O)NC[C@](O)(c2cc3c(c(-c4ccc(F)cc4)n2)NCC[C@]3(C)N)C(F)(F)F)ccc1OC[C@@H](C)O [Compound 101] | < 1 µM | 10 to 100 µM | < 1 µM |  |
| COc1cc(C(=O)NCC(O)(c2cc3c(c(-c4ccc(F)cc4)n2)OCCC3(C)N)C(F)(F)F)ccc1OCC(C)O (single isomer, unassigned) [Compound 86] | 1 to 50 µM | 10 to 100 µM | < 1 µM |  |
